Results from US7045495B2 (Sloan-Kettering Institute for Cancer Research, priority 1996, dated 2006).

What was measured:
[1] = tested on: MKN-74; assay: clonogenic assay, resistance relative to MKN-74; format: cell-based, human; details: MKN-74 (reference); 10 μg/ml CDDP, 5 μg/ml MMC, 50 FM 5-FU
Source text: (§1) The basis of drug resistance in these disease has not been well defined. […] For gastric cancer applicants have been successful in establishing five long-term cell lines, SK-GT-1, SK-GT-2, SK-GT-4, SK-GT-5, and SK-GT-6 for Sloan Kettering Gastric Tumor (12,13) none of which express P-glycoprotein (14). Yet, all these tumors are resistant to chemotherapy and to the induction of apoptosis. Applicants have reported that the relative sensitivity of these gastric cancer cells to chemotherapy is influenced by their p53 status (14).

[2] = tested on: NU-GC-4; assay: clonogenic assay, resistance relative to MKN-74; format: cell-based, human; details: 10 μg/ml CDDP, 5 μg/ml MMC
Source text: as §1

[3] = tested on: SK-GT-1; assay: clonogenic assay, resistance relative to MKN-74; format: cell-based, human; details: clonogenic survival ratio, 10 μg/ml CDDP, 5 μg/ml MMC, 50 FM 5-FU
Source text: as §1

[4] = tested on: SK-GT-2; assay: clonogenic assay, resistance relative to MKN-74; format: cell-based, human; details: 10 μg/ml CDDP, 5 μg/ml MMC, 50 FM 5-FU
Source text: as §1

[5] = tested on: SK-GT-5; assay: clonogenic assay, resistance relative to MKN-74; format: cell-based, human; details: 10 μg/ml CDDP, 5 μg/ml MMC, 50 FM 5-FU
Source text: as §1

[6] = tested on: MKN-74; assay: cell viability, trypan blue dye exclusion; format: cell-based, human; details: 24 hours, single drug or concomitant; bryostatin 1 μM, Mitomycin-C 1 μg/ml, Taxol 50 μM, Cisplatin 50 μM
Source text: Recently our laboratory has studied the effects of combining bryostatin with chemotherapy both in vitro and in vivo against solid tumors. For our in vitro studies, we have been using the human gastric cancer cell line MKN-74. Cytotoxicity has been examined both by cell viability assays using trypan blue dye exclusion assays and by the induction of apoptosis using quantitative fluorescent microscopy.

[7] = tested on: 16C mammary carcinoma; details: cisplatin 10 mg/kg i.v.; safingol 20 mg/kg i.p.; cited from earlier work

| SMILES | Fold-Increase in Resistance Relative to MKN-74 (p53wt) [1] | Fold-Increase in Resistance Relative to MKN-74 (p53wt) [2] | Fold-Increase in Resistance Relative to MKN-74 (p53wt) [3] | Fold-Increase in Resistance Relative to MKN-74 (p53wt) [4] | Fold-Increase in Resistance Relative to MKN-74 (p53wt) [5] | % of Cells Alive [6] | time for tumor to reach 5 times its starting size [7] |
| --- | --- | --- | --- | --- | --- | --- | --- |
| O=c1[nH]cc(F)c(=O)[nH]1 [5-FU, 5-Fluorouracil] | 1X | 0.6X | 11X | 12X | 6X |  |  |
| N.N.[Cl][Pt][Cl] [cisplatin, Cisplatin] | 1X | 2X | 21X | 11X | 12X | 60% | 10 days |
